# Data published in patent publication US20040037860A1, “Free nicotine based cosmetic composition and uses thereof” (COLUMBUS, priority 2001, published 2004).
# Experiments:
# [1] = tested on: localized gynoid lipodystrophy of the thighs and of the buttocks (LGL); conditions: small dose, topical
# Method: The applicant carried out a comparative trial intended to evaluate the efficacy of the composition of the invention, as a local topical application, in patients with gynoid lipodystrophy of the thighs and of the buttocks, in comparison with a placebo, considered as a control group. Concomitantly, the effects of the composition on the softness and firmness of the skin were assessed.
# It is a randomized comparative double blind monocenter trial comprising two groups of treatment of localized gynoid lipodystrophy of the thighs and of the buttocks (LGL):
# This trial lasted for 9 weeks and comprised a one-week inclusion phase, followed by an 8-week treatment phase. It was carried out in patients suffering from LGL.
# Evaluation carried out during the inclusion visit, at D28, and at the final visit for the principal and secondary criteria.
# 1.-Measurement of the adipose panicle by ultrasound scan, measured with the aid of a wide probe, by looking at the great trochanter of each femur.
# The probe was placed on a tripod, at the constant level of the ground for each subject. The measurement was carried out after acquiring the last possible image by detaching the probe from the skin plane.
# [2] = no significant difference in weight versus placebo at D28 or D56
compound,measurement,setting,value
"CN1CCCC1c1cccnc1 (centres unmarked) [Nicotine, nicotine]","reduction of the thickness of localized gynoid lipodystrophy (cellulite), on average",[1],8.9%
same,overall slimming effect,[2],no overall slimming effect
